Source: PubChem BioAssay AID248 (DTP/NCI, 2004)
Inconclusive results and toxic doses are left out. Cut-off read from the data, not from the text of the source: active = T/C of 150% or more; inactive = T/C below 125%.

Tested on: L1210 leukemia ip in BDF1 mice, survival T/C
Assay: NCI In Vivo Anticancer Drug Screen. Data for tumor model L1210 Leukemia (intraperitoneal) in B6D2F1 (BDF1) mice
Conditions: endpoint: mean survival time, higher = longer survival
Procedure, shortened: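 Read-out is survival time, reported as the treated-group measurement over the vehicle-control measurement.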

[1] = dose: 100.0 mg/kg/injection, schedule: Q04DX003 (ip), vehicle: saline with Tween-80
[2] = dose: 200.0 mg/kg/injection, schedule: Q04DX003 (ip), vehicle: saline with Tween-80
[3] = dose: 400.0 mg/kg/injection, schedule: Q04DX003 (ip), vehicle: saline with Tween-80
[4] = dose: 50.0 mg/kg/injection, schedule: Q01DX009 (ip), vehicle: Klucel (hydroxypropylcellulose) (HPC)
[5] = dose: 100.0 mg/kg/injection, schedule: Q04DX003 (ip), vehicle: saline
[6] = dose: 200.0 mg/kg/injection, schedule: Q04DX003 (ip), vehicle: saline
[7] = dose: 100.0 mg/kg/injection, schedule: Q04DX002 (ip), vehicle: saline with Tween-80
[8] = dose: 200.0 mg/kg/injection, schedule: Q04DX002 (ip), vehicle: saline with Tween-80
[9] = dose: 400.0 mg/kg/injection, schedule: Q04DX002 (ip), vehicle: saline with Tween-80
[10] = dose: 50.0 mg/kg/injection, schedule: Q01DX001 (ip), vehicle: saline
[11] = dose: 100.0 mg/kg/injection, schedule: Q01DX001 (ip), vehicle: saline
[12] = dose: 200.0 mg/kg/injection, schedule: Q01DX001 (ip), vehicle: saline
[13] = dose: 100.0 mg/kg/injection, schedule: Q01DX009 (ip), vehicle: saline with Tween-80
[14] = dose: 100.0 mg/kg/injection, schedule: Q04DX003 (ip), vehicle: Klucel (hydroxypropylcellulose) (HPC)
[15] = dose: 200.0 mg/kg/injection, schedule: Q01DX009 (ip), vehicle: saline with Tween-80
[16] = dose: 400.0 mg/kg/injection, schedule: Q01DX009 (ip), vehicle: saline with Tween-80
[17] = dose: 25.0 mg/kg/injection, schedule: Q01DX009 (ip), vehicle: Klucel (hydroxypropylcellulose) (HPC)
[18] = dose: 100.0 mg/kg/injection, schedule: Q01DX001 (ip), vehicle: saline with Tween-80
[19] = dose: 200.0 mg/kg/injection, schedule: Q01DX001 (ip), vehicle: saline with Tween-80

Measured: T/C

O=[N+]([O-])c1cc(S(=O)(=O)O)ccc1Cl
inactive: dose: 100.0 mg/kg/injection, schedule: Q04DX003 (ip), vehicle: carboxymethylcellulose (CMC) 100 % of control | [1] 98 % of control | dose: 200.0 mg/kg/injection, schedule: Q04DX003 (ip), vehicle: carboxymethylcellulose (CMC) 101 % of control | [2] 102 % of control | dose: 400.0 mg/kg/injection, schedule: Q04DX003 (ip), vehicle: carboxymethylcellulose (CMC) 97 % of control | [3] 101 % of control

OCC1SC(n2cnc3c(=S)nc[nH]c32)C(O)C1O (stereo not drawn)
inactive: dose: 200.0 mg/kg/injection, schedule: Q01DX005 (ip), vehicle: saline 103 % of control

[O-][n+]1ccc2ccccc2c1
inactive: dose: 50.0 mg/kg/injection, schedule: Q01DX005 (ip), vehicle: Klucel (hydroxypropylcellulose) (HPC) 102 % of control | [4] 101 % of control | dose: 100.0 mg/kg/injection, schedule: Q01DX001 (ip), vehicle: other 110 % of control | dose: 100.0 mg/kg/injection, schedule: Q01DX005 (ip), vehicle: Klucel (hydroxypropylcellulose) (HPC) 97 % of control | dose: 100.0 mg/kg/injection, schedule: Q01DX009 (ip), vehicle: Klucel (hydroxypropylcellulose) (HPC) 108 % of control | dose: 100.0 mg/kg/injection, schedule: Q04DX002 (ip), vehicle: Klucel (hydroxypropylcellulose) (HPC) 106 % of control | [5] 111 % of control | dose: 200.0 mg/kg/injection, schedule: Q01DX001 (ip), vehicle: other 100 % of control | dose: 200.0 mg/kg/injection, schedule: Q01DX005 (ip), vehicle: Klucel (hydroxypropylcellulose) (HPC) 105 % of control | dose: 200.0 mg/kg/injection, schedule: Q01DX009 (ip), vehicle: Klucel (hydroxypropylcellulose) (HPC) 111 % of control | dose: 200.0 mg/kg/injection, schedule: Q04DX002 (ip), vehicle: Klucel (hydroxypropylcellulose) (HPC) 109 % of control | [6] 114 % of control | dose: 400.0 mg/kg/injection, schedule: Q01DX001 (ip), vehicle: other 103 % of control

Cn1c2ccccc2c2n[nH]c(=S)nc21
inactive: [7] 104 % of control | [8] 93 % of control | [9] 101 % of control

O=C(CCCC(=O)NNC(=S)Nc1ccc2ccccc2c1)NNC(=S)Nc1ccc2ccccc2c1
inactive: [10] 98 % of control | [11] 93 % of control | [12] 93 % of control | dose: 400.0 mg/kg/injection, schedule: Q01DX001 (ip), vehicle: saline 90 % of control

COC(=O)C12N=NN(c3ccccc3)C1(C(=O)OC)C1CCC2C1 (stereo not drawn)
inactive: [13] 106 % of control | [14] 96 % of control | [15] 94 % of control | dose: 200.0 mg/kg/injection, schedule: Q04DX003 (ip), vehicle: Klucel (hydroxypropylcellulose) (HPC) 102 % of control | [16] 98 % of control | dose: 400.0 mg/kg/injection, schedule: Q04DX003 (ip), vehicle: Klucel (hydroxypropylcellulose) (HPC) 97 % of control

O=c1[nH]c(=O)n(CCc2cccs2)cc1F
inactive: [13] 98 % of control | [1] 93 % of control | [15] 96 % of control | [2] 96 % of control | [16] 98 % of control | [3] 95 % of control

CCCNC(=O)CS(=O)(=O)c1ccc(N)cc1
inactive: [1] 97 % of control | [2] 95 % of control | [3] 97 % of control

[Br][Hg][CH2]COC[CH2][Hg][Br]
inactive: dose: 6.25 mg/kg/injection, schedule: Q01DX009 (ip), vehicle: Klucel (hydroxypropylcellulose) (HPC) 103 % of control | dose: 12.5 mg/kg/injection, schedule: Q01DX009 (ip), vehicle: Klucel (hydroxypropylcellulose) (HPC) 93 % of control | [17] 112 % of control

N#Cc1cc(Cl)c(OCc2ccccc2)c(Cl)c1
inactive: dose: 50.0 mg/kg/injection, schedule: Q01DX001 (ip), vehicle: saline with Tween-80 102 % of control | [18] 104 % of control | [19] 95 % of control

CC(=O)CCC(C)(C)[N+](=O)[O-]
inactive: dose: 75.0 mg/kg/injection, schedule: Q01DX009 (ip), vehicle: acetone 97 % of control | dose: 150.0 mg/kg/injection, schedule: Q01DX009 (ip), vehicle: acetone 94 % of control | dose: 300.0 mg/kg/injection, schedule: Q01DX009 (ip), vehicle: acetone 95 % of control

CC(C)(C)C1CC=CCC1 (stereo not drawn)
inactive: dose: 50.0 mg/kg/injection, schedule: Q01DX009 (ip), vehicle: saline sonified 96 % of control | dose: 100.0 mg/kg/injection, schedule: Q01DX009 (ip), vehicle: saline sonified 102 % of control | dose: 200.0 mg/kg/injection, schedule: Q01DX009 (ip), vehicle: saline sonified 100 % of control

O=C(NCc1ccccc1)c1ccc(Cl)cc1
inactive: [5] 97 % of control | [6] 97 % of control | dose: 400.0 mg/kg/injection, schedule: Q04DX003 (ip), vehicle: saline 95 % of control

O=[N+]([O-])c1cc(Cl)cc2c1nc(NCCO)c1ccccc12
inactive: [17] 95 % of control | [4] 97 % of control | [14] 97 % of control

COC(=O)c1n[nH]c(C(C)C)c1N=NN(C)C
inactive: dose: 50.0 mg/kg/injection, schedule: Q01DX009 (ip), vehicle: saline with Tween-80 116 % of control | [1] 116 % of control | dose: 132.0 mg/kg/injection, schedule: Q04DX003 (ip), vehicle: saline with Tween-80 111 % of control | [2] 119 % of control | dose: 300.0 mg/kg/injection, schedule: Q04DX003 (ip), vehicle: saline with Tween-80 111 % of control | [3] 96 % of control

O=[N+]([O-])/C=C/c1ccc(F)cc1
inactive: dose: 75.0 mg/kg/injection, schedule: Q01DX001 (ip), vehicle: alcohol 100 % of control

COC(=O)COc1c(C)cc(Cl)cc1Cl
inactive: [7] 96 % of control | [8] 86 % of control | [9] 98 % of control

COc1ccc2oc(=O)[nH]c2c1
inactive: [18] 100 % of control | [19] 100 % of control | dose: 400.0 mg/kg/injection, schedule: Q01DX001 (ip), vehicle: saline with Tween-80 100 % of control

C=C1C(=O)OC2CC(C)CCC/C(CO)=C/C(OC(=O)/C(=C/CO)CO)C12 (stereo not drawn)
inactive: dose: 3.75 mg/kg/injection, schedule: Q04DX003 (ip), vehicle: saline 89 % of control | dose: 4.9 mg/kg/injection, schedule: Q01DX009 (ip), vehicle: acetone 93 % of control | dose: 7.5 mg/kg/injection, schedule: Q01DX001 (ip), vehicle: acetone 97 % of control | dose: 7.5 mg/kg/injection, schedule: Q01DX009 (ip), vehicle: acetone 98 % of control | dose: 7.5 mg/kg/injection, schedule: Q04DX003 (ip), vehicle: saline 100 % of control | dose: 11.0 mg/kg/injection, schedule: Q01DX009 (ip), vehicle: acetone 93 % of control | dose: 15.0 mg/kg/injection, schedule: Q01DX001 (ip), vehicle: acetone 103 % of control | dose: 15.0 mg/kg/injection, schedule: Q04DX003 (ip), vehicle: saline 99 % of control

CCCC[P+](CCCC)(CCCC)Cc1ccccc1
inactive: dose: 5.0 mg/kg/injection, schedule: Q01DX001 (ip), vehicle: saline 100 % of control | dose: 10.0 mg/kg/injection, schedule: Q01DX001 (ip), vehicle: saline 119 % of control | dose: 12.5 mg/kg/injection, schedule: Q04DX003 (ip), vehicle: Klucel (hydroxypropylcellulose) (HPC) 104 % of control | dose: 20.0 mg/kg/injection, schedule: Q01DX001 (ip), vehicle: saline 98 % of control | dose: 25.0 mg/kg/injection, schedule: Q04DX003 (ip), vehicle: Klucel (hydroxypropylcellulose) (HPC) 104 % of control | dose: 40.0 mg/kg/injection, schedule: Q01DX001 (ip), vehicle: saline 96 % of control

NCCc1c[nH]c2ccccc12
inactive: [10] 104 % of control | [11] 102 % of control | [1] 104 % of control | [12] 91 % of control | [2] 93 % of control | [3] 110 % of control
